Assay results from patent US11485742B2, “2-azaspiro[3.4]octane derivatives as M4 agonists” (NOVARTIS AG, priority 2019, dated 2022).

Key:
[1] = biological target: T1, human cloned CHRM2 receptor (Homo sapiens, UniProt P08172); test: CHRM2 Ca++ Flux Assay (M2_CHO cells, agonist mode); type: cell-based; conditions: M2 CHO cells; for EC50: agonist mode, geometric mean if tested more than once, read-out: M2 FDSS EC50; for Emax: Percent Activity (PA) measured to EC100 of Carbachol, read-out: M2 FDSS PA %
T1 construct: expressed in transfected cells; host or cells: CHO-K1 (M2_CHO)
T1 sequence (P08172 1-466): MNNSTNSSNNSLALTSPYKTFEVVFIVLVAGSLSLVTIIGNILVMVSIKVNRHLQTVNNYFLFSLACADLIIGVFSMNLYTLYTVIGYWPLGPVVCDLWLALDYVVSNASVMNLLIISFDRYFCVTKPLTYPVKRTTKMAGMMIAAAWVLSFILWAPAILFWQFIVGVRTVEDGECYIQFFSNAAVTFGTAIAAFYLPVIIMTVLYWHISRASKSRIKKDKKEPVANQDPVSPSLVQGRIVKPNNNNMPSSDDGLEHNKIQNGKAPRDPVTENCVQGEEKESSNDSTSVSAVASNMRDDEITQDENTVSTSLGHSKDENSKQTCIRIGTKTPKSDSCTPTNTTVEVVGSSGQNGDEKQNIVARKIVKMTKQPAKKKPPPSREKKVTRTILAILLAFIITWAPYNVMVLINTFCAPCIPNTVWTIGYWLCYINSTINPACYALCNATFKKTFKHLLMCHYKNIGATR
Procedure, shortened: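 Agonist activity was expressed as percent of the carbachol EC100 response, fitted by four-parameter regression on triplicate wells, with geometric means across repeat runs. Calcium traces over 3 minutes came from dye-loaded M2_CHO cells (12K/well) pre-incubated 60 min in Ca/Mg-free HBSS with 20 mM HEPES, 2.5 mM probenecid and 20 μM ATP.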

[2] = biological target: T2, human cloned CHRM5 receptor (Homo sapiens, UniProt P08912); test: CHRM5 Ca++ Flux Assay (M5_CHO cells, agonist mode); type: cell-based; conditions: for Emax: Percent Activity (PA) measured to EC100 of Carbachol, read-out: M5 FDSS PA %; for EC50: agonist mode, geometric mean if tested more than once, read-out: M5 FDSS EC50
T2 construct: expressed in transfected cells; host or cells: CHO (M5_CHO)
T2 sequence (P08912 1-532): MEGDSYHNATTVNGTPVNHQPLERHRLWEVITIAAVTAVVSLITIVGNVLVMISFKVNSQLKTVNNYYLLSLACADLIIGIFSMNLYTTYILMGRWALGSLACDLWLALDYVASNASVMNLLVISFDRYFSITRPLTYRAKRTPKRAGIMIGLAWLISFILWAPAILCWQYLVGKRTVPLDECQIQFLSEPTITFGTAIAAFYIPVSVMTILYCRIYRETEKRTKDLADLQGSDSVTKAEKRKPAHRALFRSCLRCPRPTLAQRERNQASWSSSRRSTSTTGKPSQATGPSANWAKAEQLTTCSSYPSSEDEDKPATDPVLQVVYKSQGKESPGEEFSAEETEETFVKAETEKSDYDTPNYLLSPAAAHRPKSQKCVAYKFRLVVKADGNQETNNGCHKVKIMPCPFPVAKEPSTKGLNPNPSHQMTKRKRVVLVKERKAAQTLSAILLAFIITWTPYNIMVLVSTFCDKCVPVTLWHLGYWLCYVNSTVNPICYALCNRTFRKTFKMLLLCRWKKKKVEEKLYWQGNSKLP
Procedure, shortened: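 Agonist-mode calcium mobilisation: compounds, 11 concentrations in triplicate, applied to stable M3_CHO or M5_CHO cells loaded with Ca++ dye, fluorescence followed 3 min. Efficacy expressed against carbachol EC100; EC curves by four-parameter nonlinear regression, geometric mean across independent runs.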

| EC50 [1] [µM] | Emax [1] [%] | Emax [2] [%] | EC50 [2] [µM] | SMILES |
| --- | --- | --- | --- | --- |
| 4.82 | 34 | 0 | > 25 | c1ccc(C2CCN([C@@H]3COC4(C3)CN(c3nnco3)C4)CC2)c(C2CCOCC2)c1 [Example 3C, (S)-2-(1,3,4-oxadiazol-2-yl)-7-(4-(2-(tetrahydro-2H-pyran-4-yl)phenyl)piperidin-1-yl)-5-oxa-2-azaspiro[3.4]octane] |
| 1.92 | 48 | 0 | > 25 | Fc1ccc(C2CCOCC2)c(C2CCN([C@@H]3COC4(C3)CN(c3nnco3)C4)CC2)c1 [Example 3D, (S)-7-(4-(5-fluoro-2-(tetrahydro-2H-pyran-4-yl)phenyl)piperidin-1-yl)-2-(1,3,4-oxadiazol-2-yl)-5-oxa-2-azaspiro[3.4]octane] |
| 3.66 | 16 | 0 | > 25 | c1ccc(C2CCN([C@@H]3COC4(C3)CN(c3nnco3)C4)CC2)c(CC2CCOCC2)c1 [Example 3G, (S)-2-(1,3,4-oxadiazol-2-yl)-7-(4-(2-((tetrahydro-2H-pyran-4-yl)methyl)phenyl)piperidin-1-yl)-5-oxa-2-azaspiro[3.4]octane] |
| 0.432 | 21 | 0 | > 25 | Fc1ccc(OC2COC2)c(C2CCN([C@@H]3COC4(C3)CN(c3ncco3)C4)CC2)c1 [Example 4A, (S)-7-(4-(5-fluoro-2-(oxetan-3-yloxy)phenyl)piperidin-1-yl)-2-(oxazol-2-yl)-5-oxa-2-azaspiro[3.4]octane] |
| > 25 | 32 | 0 | > 25 | Fc1ccc(OC[C@H]2COCCO2)c(C2CCN([C@@H]3COC4(C3)CN(c3ncco3)C4)CC2)c1 [Example 4B, (S)-7-(4-(2-(((R)-1,4-dioxan-2-yl)methoxy)-5-fluorophenyl)piperidin-1-yl)-2-(oxazol-2-yl)-5-oxa-2-azaspiro[3.4]octane] |
| 0.433 | 38 | 0 | > 25 | c1ccc(C2CCN([C@@H]3COC4(C3)CN(c3ncco3)C4)CC2)c(OC2COC2)c1 [Example 4C, (S)-2-(oxazol-2-yl)-7-(4-(2-(oxetan-3-yloxy)phenyl)piperidin-1-yl)-5-oxa-2-azaspiro[3.4]octane] |
| > 25 | 17 | 0 | > 25 | Fc1ccc(O[C@@H]2CCOC2)c(C2CCN([C@@H]3COC4(C3)CN(c3ncco3)C4)CC2)c1 [Example 4D, (S)-7-(4-(5-fluoro-2-(((R)-tetrahydrofuran-3-yl)oxy)phenyl)piperidin-1-yl)-2-(oxazol-2-yl)-5-oxa-2-azaspiro[3.4]octane] |
| > 25 | 0 | 0 | > 25 | Fc1ccc(OC2CCOCC2)c(C2CCN([C@@H]3COC4(C3)CN(c3ncco3)C4)CC2)c1 [Example 4E, (S)-7-(4-(5-fluoro-2-((tetrahydro-2H-pyran-4-yl)oxy)phenyl)piperidin-1-yl)-2-(oxazol-2-yl)-5-oxa-2-azaspiro[3.4]octane] |
| 3.26 | 17 | 0 | > 25 | c1ccc(C2CCN([C@@H]3COC4(C3)CN(c3ncco3)C4)CC2)c(O[C@@H]2CCOC2)c1 [Example 4F, (S)-2-(oxazol-2-yl)-7-(4-(2-(((R)-tetrahydrofuran-3-yl)oxy)phenyl)piperidin-1-yl)-5-oxa-2-azaspiro[3.4]octane] |
| 13.1 | 58 | 0 | > 25 | Fc1ccc(OC2CC3(COC3)C2)c(C2CCN([C@@H]3COC4(C3)CN(c3ncco3)C4)CC2)c1 [Example 4G, (S)-7-(4-(2-((2-oxaspiro[3.3]heptan-6-yl)oxy)-5-fluorophenyl)piperidin-1-yl)-2-(oxazol-2-yl)-5-oxa-2-azaspiro[3.4]octane] |
| > 25 | 20 | 0 | > 25 | c1ccc(C2CCN([C@@H]3COC4(C3)CN(c3ncco3)C4)CC2)c(O[C@H]2CCOC2)c1 [Example 4H, (S)-2-(oxazol-2-yl)-7-(4-(2-(((S)-tetrahydrofuran-3-yl)oxy)phenyl)piperidin-1-yl)-5-oxa-2-azaspiro[3.4]octane] |
| > 25 | 0 | 0 | > 25 | COc1ccc(F)cc1C1CCN([C@@H]2COC3(C2)CN(c2ncco2)C3)CC1 [Example 4I, (S)-7-(4-(5-fluoro-2-methoxyphenyl)piperidin-1-yl)-2-(oxazol-2-yl)-5-oxa-2-azaspiro[3.4]octane] |
| > 25 | 0 | 0 | > 25 | c1ccc(C2CCN([C@@H]3COC4(C3)CN(c3ncco3)C4)CC2)c(OC2CCOCC2)c1 [Example 4J, (S)-2-(oxazol-2-yl)-7-(4-(2-((tetrahydro-2H-pyran-4-yl)oxy)phenyl)piperidin-1-yl)-5-oxa-2-azaspiro[3.4]octane] |
| > 25 | 0 | 0 | > 25 | CC(C)(O)COc1ccc(F)cc1C1CCN([C@@H]2COC3(C2)CN(c2ncco2)C3)CC1 [Example 4K, (S)-1-(4-fluoro-2-(1-(2-(oxazol-2-yl)-5-oxa-2-azaspiro[3.4]octan-7-yl)piperidin-4-yl)phenoxy)-2-methylpropan-2-ol] |
| > 25 | 0 | 0 | > 25 | COCCOc1ccc(F)cc1C1CCN([C@@H]2COC3(C2)CN(c2ncco2)C3)CC1 [Example 4L, (S)-7-(4-(5-fluoro-2-(2-methoxyethoxy)phenyl)piperidin-1-yl)-2-(oxazol-2-yl)-5-oxa-2-azaspiro[3.4]octane] |
| > 25 | 0 | 0 | > 25 | c1ccc(C2CCN([C@@H]3COC4(C3)CN(c3ncco3)C4)CC2)c(OC2CC3(COC3)C2)c1 [Example 4M, (S)-7-(4-(2-((2-oxaspiro[3.3]heptan-6-yl)oxy)phenyl)piperidin-1-yl)-2-(oxazol-2-yl)-5-oxa-2-azaspiro[3.4]octane] |
| > 25 | 0 | 0 | > 25 | COc1ccccc1C1CCN([C@@H]2COC3(C2)CN(c2ncco2)C3)CC1 [Example 4N, (S)-7-(4-(2-methoxyphenyl)piperidin-1-yl)-2-(oxazol-2-yl)-5-oxa-2-azaspiro[3.4]octane] |
| 12.7 | 31 | 0 | > 25 | Fc1cc(OCC2COC2)c(C2CCN([C@@H]3COC4(C3)CN(c3ncco3)C4)CC2)cc1F [Example 4O, (S)-7-(4-(4,5-difluoro-2-(oxetan-3-ylmethoxy)phenyl)piperidin-1-yl)-2-(oxazol-2-yl)-5-oxa-2-azaspiro[3.4]octane] |
| 10.5 | 28 | 0 | > 25 | Fc1cc(OCC2(F)COC2)c(C2CCN([C@@H]3COC4(C3)CN(c3ncco3)C4)CC2)cc1F [Example 4P, (S)-7-(4-(4,5-difluoro-2-((3-fluorooxetan-3-yl)methoxy)phenyl)piperidin-1-yl)-2-(oxazol-2-yl)-5-oxa-2-azaspiro[3.4]octane] |
| 1.88 | 13 | 0 | > 25 | Fc1cc(OC2COC2)c(C2CCN([C@@H]3COC4(C3)CN(c3ncco3)C4)CC2)cc1F [Example 4Q, (S)-7-(4-(4,5-difluoro-2-(oxetan-3-yloxy)phenyl)piperidin-1-yl)-2-(oxazol-2-yl)-5-oxa-2-azaspiro[3.4]octane] |
| 0.203 | 12 | 0 | > 25 | c1ccc(C2CCN([C@@H]3COC4(C3)CN(c3ncco3)C4)CC2)c(-c2cncnc2)c1 [Example 4R, (S)-2-(oxazol-2-yl)-7-(4-(2-(pyrimidin-5-yl)phenyl)piperidin-1-yl)-5-oxa-2-azaspiro[3.4]octane] |
